# Measured values published in patent publication US10004786B2 (Zealand Pharma A/S, priority 2009, dated 2018).
# Numbered stars: 1 amine (or outer) side, 2 acyl side, 3 side chain; on linkers, the order of the positions; unused ones are H or OH. Square brackets hold non-standard residues; d marks the D form. Side chains are listed from the residue outwards. Peptide text beside a SMILES is read from it. * marks the point of attachment. γGlu = O=C(O)[C@H](CCC(=O)[*:2])N[*:1]; Palmitoyl = CCCCCCCCCCCCCCCC(=O)*; Aib = CC(C)(N)C(=O)O
# Assays:
# [1] = Plasma lipids after 3 weeks s.c. administration in 30 weeks high fat diet fed mice; format: in vivo, C57BL/6J mice; details: 10 nmol/kg twice daily s.c.
# Procedure: The assay is an enzymatic colorimetric method. In the presence of magnesium ions, dextran sulfate selectively forms water-soluble complexes with LDL, VLDLA and chylomicrons, which are resistant to PEG-modified enzymes. The HDL cholesterol is determined enzymatically by cholesterol esterase and cholesterol oxidase coupled with PEG to the amino groups. Cholesterol esters are broken down quantitatively to free cholesterol and fatty acids. HDL cholesterol is enzymatically oxidized to choles-4-en-3-one and H2O2, and the formed H2O2 is measured colorimetrically (Cobas®; Application note HDLC3).
# The direct determination of LDL takes advantage of the selective micellary solubilization of LDL by a nonionic detergent and the interaction of a sugar compound and lipoproteins (VLDL and chylomicrons). The combination of a sugar compound with detergent enables the selective determination of LDL in plasma. The test principle is the same as that of cholesterol and HDL, but due to the sugar and detergent only LDL-cholesterol esters are broken down to free cholesterol and fatty acids. Free cholesterol is then oxidized and the formed H2O2 is measured colorimetrically (Application note LDL_C, Cobas®).
# The effect was measured on LDL, HDL and triglycerids (CHO: Total Cholesterol; HDL: High Density Cholesterol; LDL: Low Density Cholesterol; TRIG: Triglycerides; HDL/LDL: Ratio between HDL and LDL).
# [2] = Pharmacokinetic screening in mouse plasma after subcutaneous administration; format: in vivo; details: sc, mice, 100 nmol/kg s.c., * = only two time points used for calculation
# Procedure: Mice were dosed 100 nmol/kg subcutaneously (s.c.). The mice were sacrificed and the blood collected at the following time points; 0.5, 2, 4, 6, 16 and 24 h. Plasma samples were analyzed using protein precipitation, followed by solid phase extraction (SPE) and liquid chromatography mass spectrometry (LC-MS).
# Pharmacokinetic profiles were determined for various acylated compounds.
# [3] = Body weight after 21 days s.c. administration in long term high fat fed mice; format: in vivo; details: 21 days b.i.d. s.c., 10 nmol/kg, long term high fat-fed C57BL/6J mice; p<0.05
# Procedure: (§1) Male mice (Long term high fat fed C57Bl/6J, short term high fat fed C57Bl/6J and db/db) were acclimatized with free access to food and water. They were housed in groups of 5-6 in a light-, temperature-, and humidity-controlled room (12-hour light:12-hour dark cycle, lights On/Off at 2000/0800 hour; 24° C.; 50% relative humidity).
# (§2) The animals were injected s.c. with 100 μl vehicle (once a day) for a period of three days to acclimatize the animals to handling and injections. Blood samples were taken from the eye or from the tip of the tail. The animals were randomized before treatment.
# (§3) Mice were treated twice daily s.c. with GluGLP-1 agonist or vehicle (injection volume=2.5 ml/kg). Throughout the study, body weights were recorded daily and used to administer the body weight-corrected doses of peptide. Peptide solutions were prepared fresh immediately before dosing.
# Effect of 21 days s.c. administration of compound 11 on body weight was determined in long term high fat-fed C57BL/6J mice. C57Bl/6J male mice on high fat diet (HFD) were treated (b.i.d.; s.c.) with compound 11 (10 nmol/kg) or vehicle. Body weights were recorded daily and used to administer the body weight-corrected doses of peptide throughout the study. Data are shown as mean±SEM in FIG. 4.
# [4] = HbA1c in db/db mice after 28 days; format: in vivo; details: 4 weeks, 12.7 nmol/kg, P=0.03 Students t-test
# Procedure: as §1, §2
# Mice were treated twice daily s.c. with GluGLP-1 agonist or vehicle (injection volume=2.5 ml/kg). Throughout the study, body weights were recorded daily and used to administer the body weight-corrected doses of peptide. Peptide solutions were prepared fresh immediately before dosing. […]
# The HbA1c determination is based on Turbidimetric INhibition ImmunoAssay (TINIA) in which HbA1c in the sample reacts with anti-HbA1c to form soluble antigen-antibody complexes. Additions of polyhaptens react with excess anti-HbA1c antibodies to form an insoluble antibody-polyhapten complex, which can be measured turbidimetrically. Liberated hemoglobin in the hemolyzed sample is converted to a derivative having a characteristic absorption spectrum, which is measured bichromatically during the preincubation phases. […]
# [5] = Liver weight/body weight of C57BL/6J mice treated for 2 weeks; format: in vivo
# Procedure: Mice were treated twice daily s.c. with Cpd. 1 and Cpd. 11 (at two doses: 0.5 and 5 nmol/kg) or vehicle for 2 weeks. Throughout the study, body weights were recorded daily and used to administer the body weight-corrected doses of peptide. On the day of sacrifice, the liver was exposed, and weighed.
# [6] = Oral glucose tolerance test after 21 days s.c. administration in long term high fat fed mice; format: in vivo; details: 10 nmol/kg, long term high fat-fed C57BL/6J mice, two way ANOVA
# Procedure: as §1, §2, §3
# Oral glucose tolerance tests (OGTT) were performed after subjecting the animals to a short fast. To prevent confounding food intake, the animals were kept fasted during the OGTTs. After peptide dosing an initial blood sample was taken. […] The whole blood glucose (BG) was measured at t=15 min, t=30 min, t=60 min, t=90 min and t=120 min.
# The BG concentration was analyzed by the immobilized glucose oxidase method using a drop of blood (<5 μl; Elite Autoanalyser, Bayer, Denmark) following the manufacturer's instructions. […]
# [7] = Body weight gain in high fat fed C57BL/6J mice (10 days); format: in vivo; details: 5 nmol/kg b.i.d. s.c., short term high fat-fed C57BL/6J mice
# Summary of the method: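 Male C57Bl/6J mice fed high fat diet for 4 weeks from 6 weeks of age, vehicle-acclimatized 3 days, then dosed b.i.d. s.c. with peptide at 0.5 and 5 nmol/kg or vehicle. Doses corrected to daily body weights, which were recorded throughout.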
structure (smiles),measurement,setting,value
CCCCCCCCCCCCCCCC(=O)N[C@@H](CCC(=O)NCCCC[C@H](NC(=O)[C@H](CO)NC(=O)[C@H](CC(=O)O)NC(=O)[C@H](CC(C)C)NC(=O)[C@H](Cc1ccc(O)cc1)NC(=O)[C@H](CCCCN)NC(=O)[C@H](CO)NC(=O)[C@H](Cc1ccc(O)cc1)NC(=O)[C@H](CC(=O)O)NC(=O)[C@H](CO)NC(=O)[C@@H](NC(=O)[C@H](Cc1ccccc1)NC(=O)[C@@H](NC(=O)CNC(=O)[C@H](CCC(N)=O)NC(=O)C(C)(C)NC(=O)[C@@H](N)Cc1c[nH]cn1)[C@@H](C)O)[C@@H](C)O)C(=O)N[C@@H](C)C(=O)N[C@@H](C)C(=O)N[C@@H](Cc1c[nH]cn1)C(=O)N[C@@H](CC(=O)O)C(=O)N[C@@H](Cc1ccccc1)C(=O)N[C@H](C(=O)N[C@@H](CCC(=O)O)C(=O)N[C@@H](Cc1c[nH]c2ccccc12)C(=O)N[C@@H](CC(C)C)C(=O)N[C@@H](CC(C)C)C(=O)N[C@@H](CCCNC(=N)N)C(=O)N[C@@H](C)C(N)=O)C(C)C)C(=O)O [Compound 11] (H-H[Aib]QGTFTSDYSKYLDSK([γGlu-Palmitoyl])AAHDFVEWLLRA-NH2),HDL,[1]; P<0.001,significantly decreased
same,LDL,[1]; P<0.001,significantly decreased
same,cholesterol (total),[1]; P<0.001,significantly decreased
same,triglycerides,[1]; P<0.05,significantly decreased
same,ratio HDL/LDL,[1]; p<0.001,increased significantly
same,half-life,[2],4.9 h
same,body weight,[3],significantly decreased body weight
same,ΔHbA1c (%) compared to vehicle,[4],decreased ΔHbA1c (%) significantly
same,"liver weight/body weight ratio, low dose",[5]; 0.5 nmol/kg twice daily s.c.,did not affect
same,"liver weight/body weight ratio, high dose",[5]; 5 nmol/kg twice daily s.c.,did not affect
same,change in liver size,"[5]; repeated treatment, C57 healthy control mice, compared with compound 1",do not give rise to change in liver size
same,oral glucose tolerance,[6],significantly improved glucose tolerance
same,"body weight gain, high dose",[7],significantly decreased body weight gain at the high dose
